Source: patent US11219623B2, “Inflammasome inhibition for the treatment of Parkinson's disease, Alzheimer's disease and multiple sclerosis” (University of Kentucky Research Foundation, priority 2015, dated 2022)
≈ marks a conversion by molar mass, not a printed value. Entries after “also recorded” stand apart in the source; their conditions may differ.

Legend:
[1] = test system: GFP-expressing lentivirus; assay: GFP-expressing lentivirus transduction/replication assay in HeLa cells; assay type: cell-based; details: for lentivirus replication (GFP-positive cells per field): 10 μM, 72 hours, MOI 20
Experimental: All drugs were added at a concentration of 10 μM. Cells were imaged for GFP expression 72 hours after addition of lentivirus. GFP-positive cells per field of view were recorded. n=4-11, error bars S.E.M. Reverse transcription of lentivirus is essential for GFP expression; modified NRTIs should not block reverse transcriptase, whereas NRTIs are known to block reverse transcriptase.
The present disclosure further provides the results of additional experiments in FIG. 21-FIG. 23.

Caspase-1 [2] = assay: Alu RNA-induced Caspase-1 activation, western blot, primary human RPE cells; assay type: cell-based; details: for Alu RNA-induced Caspase-1 activation/cleavage: concentration not given
Description: The bottom row in FIG. 5 is a vinculin loading control.

wild-type mice [3] = assay: pAlu-induced RPE degeneration, mouse model of dry AMD; assay type: in vivo
Experimental: Mouse studies were conducted to study treatment with NRTIs or derivatives.

[4] = test system: human LINE-1 retrotransposon; assay: EGFP cell culture L1 retrotransposition assay in HeLa cells; assay type: cell-based; details: 7 days after transfection, flow cytometry
Experimental: These findings pave way for the rational re-design and improvement of nucleoside analogs as novel therapeutics. The enhanced green fluorescent protein (EGFP) cell culture L1 retrotransposition assay was performed in HeLa cells. […] Transfected cells were selected in puromycin. 7 days after transfection, cells that underwent retrotransposition (EGFP-positive) were assayed by flow cytometry. Cells were gated based on background fluorescence of plasmid JM111, which has two point mutations in L1-ORF1 that abolish retrotransposition. Data are normalized with RPS set to 1.

IL-1 beta = assay: LPS/ATP-induced IL-1 beta activation in Raji TK− and TK+ cells, western blot; assay type: cell-based
Description: (§1) To determine whether LPS/ATP-induced inflammasome activation can be inhibited without RT inhibition, the present inventors utilized thymidine kinase-deficient (Raji/TK^−) and -expressing (Raji/TK^+) cells (Balzarini et al., 1989).

wild-type mice [5] = assay: Laser-induced choroidal neovascularization (CNV; wet AMD) in wild-type mice; details: N=16
[6] = test system: Raji TK^+ and Raji TK^− cells; assay: Phosphorylation of AZT to AZT-triphosphate in Raji TK+ / TK− cells, LC-MS; assay type: in vitro ADME
Description: as §1
FIG. 50 is a standard curve of AZT-TP standards (black circle). […] FIG. 50 is representative of two experiments.

[7] = LogP, partition coefficient in 1-octanol; assay type: physicochemical; details: 1-octanol partition
human P2X7 receptor = molecular target: T1, human P2X7 receptor (Homo sapiens, UniProt Q99572); details: HEK293 stably expressing human P2X7; concentration not given
T1 sequence (Q99572 1-595): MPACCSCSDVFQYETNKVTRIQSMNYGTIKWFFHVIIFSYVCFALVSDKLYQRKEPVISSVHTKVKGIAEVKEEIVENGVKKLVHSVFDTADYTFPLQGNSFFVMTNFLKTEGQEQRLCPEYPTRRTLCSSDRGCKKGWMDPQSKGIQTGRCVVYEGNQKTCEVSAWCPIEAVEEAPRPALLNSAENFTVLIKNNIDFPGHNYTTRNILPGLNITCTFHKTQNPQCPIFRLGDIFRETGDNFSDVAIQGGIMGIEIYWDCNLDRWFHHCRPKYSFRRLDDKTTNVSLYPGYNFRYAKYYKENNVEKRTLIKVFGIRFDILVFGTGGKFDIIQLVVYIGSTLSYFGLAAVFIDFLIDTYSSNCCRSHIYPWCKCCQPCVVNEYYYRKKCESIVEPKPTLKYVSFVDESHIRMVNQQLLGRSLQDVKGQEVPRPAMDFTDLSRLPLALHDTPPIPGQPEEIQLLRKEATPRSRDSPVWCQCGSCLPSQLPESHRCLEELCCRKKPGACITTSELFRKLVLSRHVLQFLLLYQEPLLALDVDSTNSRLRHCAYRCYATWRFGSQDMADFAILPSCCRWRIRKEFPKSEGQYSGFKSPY

Caspase-1 [8] = assay: iGLuc luminescence assay of ATP-induced Caspase-1 activation in J774 iGLuc cells; assay type: cell-based, mouse; details: for Caspase-1 cleavage (luminescence): ATP 5 mM, N=3
Experimental: Caspase-1 is the enzyme at the core of the inflammasome complex and is an important danger response signal and mediator of RPE cell death in AMD. […] Importantly, there was some difference between individual compounds in terms of the dose response curve, emphasizing the need to test each compound (with unique R group(s)) individually.
To obtain the data set forth in FIGS. 64-73, an iGLuc assay was conducted (modified from Bartok et al. iGLuc: a luciferase-based inflammasome and protease activity reporter. Nature Methods 2013; 10(2):147-54). Briefly, 100,000 iGLuc cells per well were plated in a 96 well plate overnight. The next morning, media is aspirated from the plate and replaced with 75 μL of serum free DMEM with drugs (NRTIs or modified NRTIs) for 30 min. After 30 minutes of drug exposure, 20 mM ATP (25 μL) is added for a final concentration of 5 mM. 50 μL of media from each well is collected and 50 μL of coelenterazine 4.4 μM is added to each sample, and luminescence is read immediately.

Caspase-1 [9] = assay: Iron (III) ammonium citrate-induced Caspase-1 activation, western blot, primary human RPE cells; assay type: cell-based; details: 25 μM, Fe(III) ammonium citrate (100 μM)
Description: Caspase-1 activation (p20 subunit) in primary human retinal pigment epithelium (RPE) cells in the presence of iron (III) ammonium citrate was studied.
Caspase-1 activation (p10 subunit) in primary human RPE cells in the presence of iron (III) ammonium citrate was studied.
Alu RNA is a toxic endogenous retroelement that accumulates in and causes death of the RPE in patients with dry AMD. […] FAC activates Caspase-1 via an Alu RNA intermediate, and induces NLRP3-dependent RPE degeneration (Gelfand et al. Cell Reports 2015). Fe(III) ammonium citrate (100 μM)-induced Caspase-1 activation in primary human RPE cells, monitored by western blotting, is reduced by TM-3TC (25 μM), d4T-ene (25 μM), 2Me-d4T (25 μM), Me-AZT (25-100 μM), and 2Me-AZT (25 μM). N=3-4.

Solubility in water = assay type: physicochemical; details: aqueous buffer; Water pH 7.2 at 37° C.
mice [10] = assay: Iron-induced RPE degeneration in mice; assay type: in vivo, mouse; details: intraperitoneal 25 mg/kg days 1 to 6; read day 7
mice [11] = assay: Amyloid beta-induced RPE degeneration in mice; assay type: in vivo, mouse; details: intraperitoneal 25 mg/kg days 1 to 6; read day 7
mtDNA = assay: Relative quantity of mtDNA, quantitative PCR, primary human RPE cells; details: 50 μM; four days; relative to DMSO
wild-type mice [12] = assay: Poly IC-induced RPE degeneration in mice; assay type: in vivo, mouse; details: intravitreous; measured 7 days after poly IC
wild-type mice [13] = assay: Alu RNA-induced RPE degeneration, mouse model of dry AMD
JR5558 mice = assay: Spontaneous CNV in JR5558 mice, fluorescein angiography dye leakage; assay type: in vivo, mouse
Description: JR5558 mice develop spontaneous choroidal neovascularization (CNV) and are an animal model of wet/neovascular age-related macular degeneration (AMD). The activity of the CNV lesions can be monitored using fluorescein angiography to assess the degree of dye leakage from the lesions, as is done in humans with this disease. FIGS. 81 and 82 are representative images from two JR5558 mice (N=8). The first and third row of FIGS. 81 and 82 show time dependent dye leakage from pre-existing CNV lesions in the left eye (first row) and right eye (third row) of a first and second JR5558 mouse, respectively.

[14] = intraperitoneal 25 mg/kg twice daily

Row | SMILES | lentivirus replication (GFP-positive cells per field) [1] | Alu RNA-induced Caspase-1 activation/cleavage (Caspase-1 [2]) | L1 retrotransposition (EGFP-positive cells) [4] | logP [7] | Caspase-1 cleavage (luminescence) (Caspase-1 [8]; drug 1 nM-100 μM) | solubility (Solubility in water) | Iron-induced RPE degeneration (mice [10]) | pAlu-induced RPE degeneration (wild-type mice [3]; [14]) | relative quantity of mtDNA (mtDNA depletion) (mtDNA) | poly IC-induced RPE degeneration (wild-type mice [12]) | further results
1 | Cc1cn([C@H]2C[C@H](N=[N+]=[N-])[C@@H](CO)O2)c(=O)[nH]c1=O [AZT, 3′-azido-2′,3′-dideoxythymidine, reference compound] | blocked lentivirus GFP expression | block Caspase-1 cleavage | blocked L1 retrotransposition | -0.41 | reduces Caspase-1 cleavage in a dose-dependent fashion | – | – | – | – | – | Alu RNA-induced Caspase-1 maturation (Caspase-1 [2]; 50-100 uM, 24 hours after Alu administration): blocked; pAlu-induced RPE degeneration (wild-type mice [3]; intraperitoneal administration, dose not stated): blocked RPE degeneration; IL-1 beta activation by LPS/ATP (IL-1 beta; Raji TK+ cells): blocks IL-1 beta activation; IL-1 beta activation by LPS/ATP (IL-1 beta; Raji TK− cells): blocks IL-1 beta activation; laser injury-induced CNV volume (wild-type mice [5]; intravitreous 0.55 nmol): reduced laser injury-induced CNV volume; formation of AZT-triphosphate (AZT-TP) ([6]; Raji TK+ cells): produced AZT-TP; formation of AZT-triphosphate (AZT-TP) ([6]; Raji TK− cells): not detectable; P2X7-dependent YO-PRO-1 uptake induced by bzATP (human P2X7 receptor): inhibited P2X7-dependent uptake
2 | COCC1C=C[C@H](n2cc(C)c(=O)n(C)c2=O)O1 (stereo partly drawn) [Kamuvudine 2Me-d4T, 1-[(2R)-5-(methoxymethyl)-2,5-dihydrofuran-2-yl]-3,5-dimethyl-1,2,3,4-tetrahydropyrimidine-2,4-dione] | do not block lentivirus replication | – | no effect on L1 activity | 0.63 | – | 10000 µg/mL (≈ 39.6 mM) | blocked the development of RPE degeneration | restored to healthy RPE morphology/intercellular junctions | do not exhibit mtDNA depletion | blocks this degeneration | iron-induced Caspase-1 activation (Caspase-1 [9]): reduced; iron-induced Caspase-1 activation (Caspase-1 [9]; listed as 2me-d4T): blocked iron-induced Caspase-1 activation; Amyloid beta-induced RPE degeneration (mice [11]): blocked the development of RPE degeneration
3 | COC[C@@H]1O[C@H](n2ccc(N(C)C)nc2=O)CS1 [Kamuvudine 3Me-3TC, 4-(dimethylamino)-1-[(2R,5S)-2-(methoxymethyl)-1,3-oxathiolan-5-yl]-1,2-dihydropyrimidin-2-one] | do not block lentivirus replication | – | no effect on L1 activity | 0.09 | reduces Caspase-1 cleavage in a dose-dependent fashion | 7000 µg/mL (≈ 25.8 mM) | – | protects against RPE degeneration | do not reduce mtDNA | – | iron-induced Caspase-1 activation (Caspase-1 [9]; listed as TM-3TC): blocked iron-induced Caspase-1 activation; also recorded: reduced; Alu RNA-induced RPE degeneration (wild-type mice [13]; intraperitoneal 25 mg/kg, twice daily for 6 days): protects against RPE degeneration; Alu RNA induced Caspase-1 activation (Caspase-1 [2]; 25-100 μM (25 and 100 μM), listed as TM-3TC): blocked Alu-induced Caspase-1 activation; also recorded: reduced; CNV lesion leakage compared to 3TC (JR5558 mice; 62.5 ng vs 125 ng 3TC): greater reduction in CNV lesion leakage; activity (dye leakage) of pre-existing CNV lesions (JR5558 mice; single intravitreous 62.5 ng, 3 days after administration): suppress the activity of pre-existing CNV lesions
4 | COC[C@@H]1C=C[C@H](n2cc(C)c(=O)[nH]c2=O)O1 [Me-d4T, 1-[(2R,5S)-5-(methoxymethyl)-2,5-dihydrofuran-2-yl]-5-methyl-1,2,3,4-tetrahydropyrimidine-2,4-dione] | do not block lentivirus replication | blocks Caspase-1 activation | no effect on L1 activity | 0.41 | – | 30000 µg/mL (≈ 126 mM) | blocked the development of RPE degeneration | – | do not exhibit mtDNA depletion | blocks this degeneration | Alu-induced RPE degeneration (wild-type mice [13]; intraperitoneal injection, dose not stated): prevents Alu-induced RPE degeneration; replication of GFP-expressing lentivirus ([1]; FIG. 22, concentration not given): does not block lentivirus replication; choroidal neovascularization (CNV) volume (wild-type mice [5]; intravitreous 0.14 nmol, day 7): reduced choroidal neovascularization (CNV) volume; Caspase-1 cleavage (luminescence) (Caspase-1 [8]; drug 100 μM): reduces Caspase-1 cleavage in a dose-dependent fashion; reduction of inflammasome activation (Caspase-1 [8]; ATP (5 mM), mouse J774 iGLuc cells, FIGS. 70-73): about 70%
